Experimental data from patent US20190055231A1, “BACE1 INHIBITORS” (Hoffmann-La Roche Inc., priority 2016, published 2019).
Read-outs that look alike come from different tables or passages of the source.

Legend:
[1] = system: Aβ40 in brain of wild-type mice; assay: Mouse acute in vivo model (inhibition of Aβ40 in brain of wild-type mice); conditions: 4 h post dose
Procedure: Mouse Acute In Vivo Model (Inhibition of Aβ40 in Brain of Wild-Type Mice)
Single Dose Efficacy in Mice
The mouse single dose efficacy was measured in brain homogenate from C57Bl/6J wildtype mice after DEA extraction as described in H. Hilpert et al., J. Med. Chem. 2013, 56, 3980-3995 (dx.doi.org/10.1021/jm400225m).
(§1) Aβ 40 concentration was determined after solid phase extraction as described above and following a modified protocol from Perkin-Elmer with a commercially available antibody against the N-terminal part of rat Aβ (252Q6, Invitrogen cat. No. AMB0062) and an in-house C-terminal specific anti-Aβ40 antibody (BAP-24, Brockhaus M. et al., J. Neuroreport, 1998, 9:1481-1486) bound to acceptor beads (PerkinElmer, Cat. 6772002). 20 μl analyte per well (reconstituted extracts or standard) were loaded to a White Optiplate-96 (Perkin-Elmer, Cat#6005290). Then, a mixture of biotinylated BAP24 antibody (1:2000 diluted at approximately 1 nM final concentration) and antibody 252Q6 bound to AlphaLISA acceptor beads (Perkin-Elmer cat. No. 6772002 (1:100 diluted, 10 ug/mL final concentration) in 1× AlphaLISA buffer (Perkin-Elmer, AL000F) was added. After 1 hour room temperature incubation in the dark, 20 uL of a streptavidin coated donor beads dilution (40 μg/mL) were added and incubated for 30 minutes in the dark. Light emission at 615 nm was recorded using an EnVision AlphaScreen Reader (Perkin-Elmer). Levels of Aβ40 were calculated as percentage of the baseline samples from non-treated animals.
Aβ40 lowering was determined after oral administration in wild-type mice (C57Bl/6J mice, n=3-4) 4 h post dosing. Wild-type mice were used as they have a normal physiological level of APP expression and are thus expected to provide a better physiological model for Aβ-peptide production than APP-transgenic organisms. In vivo efficacy is a key factor for appropriate drug candidates, being more relevant than in vitro activities.

[2] = biological target: hERG channel (Homo sapiens, UniProt Q12809); assay: hERG IC20 assay; type: cell-based
Description: The methods to determine the hERG IC20 values was described in Industrializing electrophysiology: HT automated patch clamp on SyncroPatch® 96 using instant frozen cells. Polonchuk L., Methods Mol Biol. 2014; 1183:81-92. (doi: 10.1007/978-1-4939-1096-0_5.) PMID:25023303
QT prolongation is a cardiovascular risk caused by drug candidates which inhibit the hERG channel (human ether a go-go). A sufficient safety margin between the hERG IC20 value and the free plasma concentration necessary to achieve the envisaged thereapeutic effects is desired (ICH. The nonclinical evaluation of the potential for delayed ventricular repolarization (QT interval prolongation) by human pharmaceuticals (S7B), issued as CPMP/ICH/423/02, adopted by CHMP in May 2005 (http://www.ich.org/cache/compo/276-254-1.html; Redfern W S, Carlsson L, Davis A S, Lynch W G, MacKenzie I, Palethorpe S, Siegl P K, Strang I, Sullivan A T, Wallis R, Camm A J, Hammond T G. Relationships between preclinical cardiac electrophysiology, clinical QT interval prolongation and torsade de pointes for a broad range of drugs: evidence for a provisional safety margin in drug development. Cardiovasc Res. 2003 Apr. 1; 58(1):32-45.)). Reducing the activity against efflux transporters expressed at the blood-brain-barrier such as P-glycoprotein P-gp, might result in reduction of the free plasma concentration by optimizing brain penetration.

[3] = system: CSF Aβ40; assay: Rat single dose study, inhibition of CSF Aβ40 in Wistar rats; type: in vivo; conditions: rat CSF Aβ40, 1 mg/kg, 4 h post dose
Procedure: (§2) Rat Single Dose PK Study (Inhibition of CSF Aβ40 in Wistar Rats)
(§3) The rat single dose PK study was described in H. Hilpert et al., J. Med. Chem. 2013, 56, 3980-3995 (dx.doi.org/10.1021/jm400225m) with slight modifications.
as §1, with “determined without” for “determined after”, “extraction” for “extraction as described above and”, “20 μL” for “20 uL”, “of Aβ 40” for “of Aβ40”

[4] = Rat single dose PK study; type: in vivo; conditions: 1 mg/kg; for concentration at 4 h: oral
Procedure: as §2, §3
(§4) Blood is transferred into a labeled EDTA-K2 Eppendorf tube and the sample is mixed by inverting the tubes several times. Blood is stored at −20° C.

[5] = biological target: Human P-gp (Homo sapiens, UniProt P08183); assay: P-gp transport assay (human); type: in vitro ADME; conditions: efflux ratio
Description: (§5) P-Gp Transport Assay (Human and Mouse) (P-Gp Assay)
(§6) In the assay of the P-gp efflux ratio ER as described hereinabove, a compound with ER<2.5 is regarded most suitable. In addition, compounds with low hERG channel binding are suitable as well.

[6] = biological target: Mouse P-gp (Mus musculus, UniProt P21447); assay: P-gp transport assay (mouse); type: in vitro ADME; conditions: efflux ratio
Description: as §5, §6

[7] = Cynomolgus monkey single dose PK study; type: in vivo, Cynomolgus monkey (Macacaca fascicularis)
Description: Cynomolgus Monkey (Macacaca fascicularis) Single Dose PK Study and Plasma Aβ40 Determination
Blood and plasma collection will always be performed in the treatment cage. The animal care keeper grabs either one arm or one leg through the bars. The hairs are shaved for better visibility of the vein. The blood vessel is squeezed, the vein is punctured by using a butterfly and blood is taken. Once enough blood has been withdrawn a cotton swab is placed over the injection site and the needle is gently removed. Bleeding is stopped by pressing a cotton swab on the wound. Plasma samples were taken between 5 min and 48 h.
Plasma Preparation Cynomolgus
as §4

Chain of hERG channel (Q12809 whole entry): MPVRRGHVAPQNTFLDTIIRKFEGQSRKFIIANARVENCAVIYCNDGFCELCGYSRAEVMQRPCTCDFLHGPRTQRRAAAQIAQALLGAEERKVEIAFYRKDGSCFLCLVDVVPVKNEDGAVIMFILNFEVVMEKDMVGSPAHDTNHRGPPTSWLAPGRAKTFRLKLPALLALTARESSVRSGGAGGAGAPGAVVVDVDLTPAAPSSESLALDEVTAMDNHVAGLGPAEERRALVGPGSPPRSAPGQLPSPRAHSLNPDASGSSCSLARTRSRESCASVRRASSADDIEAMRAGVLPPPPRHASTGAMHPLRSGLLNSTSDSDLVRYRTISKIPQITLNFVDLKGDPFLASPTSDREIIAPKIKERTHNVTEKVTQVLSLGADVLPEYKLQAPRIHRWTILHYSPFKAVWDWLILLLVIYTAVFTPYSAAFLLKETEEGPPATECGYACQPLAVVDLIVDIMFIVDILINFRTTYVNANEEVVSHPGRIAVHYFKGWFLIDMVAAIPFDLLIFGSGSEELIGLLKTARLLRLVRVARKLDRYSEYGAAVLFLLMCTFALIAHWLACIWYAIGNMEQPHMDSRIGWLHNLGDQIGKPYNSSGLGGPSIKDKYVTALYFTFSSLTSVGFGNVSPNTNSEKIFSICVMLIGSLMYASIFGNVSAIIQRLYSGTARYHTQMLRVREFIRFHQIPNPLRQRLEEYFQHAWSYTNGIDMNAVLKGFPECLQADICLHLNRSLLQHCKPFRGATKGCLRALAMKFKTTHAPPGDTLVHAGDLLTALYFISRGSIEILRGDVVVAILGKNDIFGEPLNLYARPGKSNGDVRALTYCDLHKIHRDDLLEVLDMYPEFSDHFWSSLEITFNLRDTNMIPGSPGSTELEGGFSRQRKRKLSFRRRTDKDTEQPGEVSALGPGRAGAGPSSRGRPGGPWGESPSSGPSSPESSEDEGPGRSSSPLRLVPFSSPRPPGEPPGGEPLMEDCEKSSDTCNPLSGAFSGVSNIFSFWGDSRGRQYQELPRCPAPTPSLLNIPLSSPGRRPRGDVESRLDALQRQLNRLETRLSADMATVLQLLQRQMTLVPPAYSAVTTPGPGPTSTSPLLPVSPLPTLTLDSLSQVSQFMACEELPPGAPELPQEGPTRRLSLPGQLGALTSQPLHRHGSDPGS
Chain of Human P-gp (P08183 whole entry): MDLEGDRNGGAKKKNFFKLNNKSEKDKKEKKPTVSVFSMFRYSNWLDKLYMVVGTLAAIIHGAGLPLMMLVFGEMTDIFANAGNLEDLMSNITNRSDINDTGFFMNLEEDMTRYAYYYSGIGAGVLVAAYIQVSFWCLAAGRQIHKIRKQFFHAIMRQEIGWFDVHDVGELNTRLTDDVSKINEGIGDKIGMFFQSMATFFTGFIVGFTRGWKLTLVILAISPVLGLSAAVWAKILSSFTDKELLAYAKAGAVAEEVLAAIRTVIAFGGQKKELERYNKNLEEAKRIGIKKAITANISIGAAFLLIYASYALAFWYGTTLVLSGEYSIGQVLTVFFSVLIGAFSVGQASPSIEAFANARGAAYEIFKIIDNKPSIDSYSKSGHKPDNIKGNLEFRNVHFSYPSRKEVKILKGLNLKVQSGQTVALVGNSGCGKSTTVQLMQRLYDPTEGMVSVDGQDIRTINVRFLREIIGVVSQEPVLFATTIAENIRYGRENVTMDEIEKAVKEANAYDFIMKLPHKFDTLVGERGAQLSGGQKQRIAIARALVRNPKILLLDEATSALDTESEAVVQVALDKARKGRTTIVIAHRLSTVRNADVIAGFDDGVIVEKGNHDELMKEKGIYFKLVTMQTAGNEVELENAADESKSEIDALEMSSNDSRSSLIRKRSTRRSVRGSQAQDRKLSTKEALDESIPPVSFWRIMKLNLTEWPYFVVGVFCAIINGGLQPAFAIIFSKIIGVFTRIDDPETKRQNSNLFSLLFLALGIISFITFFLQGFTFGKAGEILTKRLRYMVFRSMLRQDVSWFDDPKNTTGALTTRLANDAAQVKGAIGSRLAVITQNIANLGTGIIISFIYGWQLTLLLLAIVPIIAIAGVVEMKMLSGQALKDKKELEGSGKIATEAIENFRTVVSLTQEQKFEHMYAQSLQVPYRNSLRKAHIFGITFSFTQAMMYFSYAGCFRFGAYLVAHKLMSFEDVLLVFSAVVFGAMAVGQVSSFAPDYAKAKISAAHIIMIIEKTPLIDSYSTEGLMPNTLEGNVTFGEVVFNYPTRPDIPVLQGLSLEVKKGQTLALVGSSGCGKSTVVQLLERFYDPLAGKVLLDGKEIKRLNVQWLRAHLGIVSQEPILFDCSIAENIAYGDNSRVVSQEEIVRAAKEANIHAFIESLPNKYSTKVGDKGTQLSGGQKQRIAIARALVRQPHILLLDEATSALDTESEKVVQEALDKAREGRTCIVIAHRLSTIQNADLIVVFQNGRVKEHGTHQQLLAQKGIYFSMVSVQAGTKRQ
Chain of Mouse P-gp (P21447 whole entry): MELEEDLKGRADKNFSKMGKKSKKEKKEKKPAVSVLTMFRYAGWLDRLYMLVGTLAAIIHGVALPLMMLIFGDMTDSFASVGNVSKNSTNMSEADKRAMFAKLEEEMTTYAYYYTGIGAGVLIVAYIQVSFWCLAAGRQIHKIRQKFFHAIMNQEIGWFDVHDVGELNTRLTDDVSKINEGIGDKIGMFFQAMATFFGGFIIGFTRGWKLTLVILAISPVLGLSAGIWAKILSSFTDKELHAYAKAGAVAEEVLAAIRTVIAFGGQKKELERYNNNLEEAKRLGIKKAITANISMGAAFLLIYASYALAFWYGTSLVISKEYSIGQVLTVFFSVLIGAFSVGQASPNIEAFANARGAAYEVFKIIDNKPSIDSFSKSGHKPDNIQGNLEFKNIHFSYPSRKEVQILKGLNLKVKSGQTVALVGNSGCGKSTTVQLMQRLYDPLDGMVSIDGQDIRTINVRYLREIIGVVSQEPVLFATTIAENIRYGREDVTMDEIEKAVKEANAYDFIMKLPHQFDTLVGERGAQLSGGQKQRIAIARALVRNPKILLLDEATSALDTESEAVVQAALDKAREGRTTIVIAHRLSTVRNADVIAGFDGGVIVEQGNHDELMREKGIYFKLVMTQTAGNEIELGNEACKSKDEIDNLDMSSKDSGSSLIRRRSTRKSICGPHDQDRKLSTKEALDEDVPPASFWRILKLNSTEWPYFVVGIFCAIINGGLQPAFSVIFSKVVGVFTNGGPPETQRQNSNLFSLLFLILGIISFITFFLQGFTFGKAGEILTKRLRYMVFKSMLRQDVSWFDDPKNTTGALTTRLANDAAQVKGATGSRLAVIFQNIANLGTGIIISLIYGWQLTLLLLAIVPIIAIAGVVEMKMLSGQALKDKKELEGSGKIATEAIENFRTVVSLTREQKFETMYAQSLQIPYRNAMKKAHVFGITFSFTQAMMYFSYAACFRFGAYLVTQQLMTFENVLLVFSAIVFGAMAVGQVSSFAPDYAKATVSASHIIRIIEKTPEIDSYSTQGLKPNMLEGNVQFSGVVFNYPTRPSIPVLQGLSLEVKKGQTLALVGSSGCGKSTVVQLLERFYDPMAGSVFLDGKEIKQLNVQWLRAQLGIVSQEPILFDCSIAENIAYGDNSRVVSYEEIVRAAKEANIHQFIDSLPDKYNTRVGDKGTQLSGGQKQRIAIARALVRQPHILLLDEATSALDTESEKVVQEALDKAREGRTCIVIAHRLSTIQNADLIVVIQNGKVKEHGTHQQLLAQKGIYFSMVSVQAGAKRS

Plasma concentration at 4 h, free ([4]; 4 h, free unbound): 0.0363 µM | Plasma concentration at 4 h ([4]; 4 h, total): 0.193 µM | concentration at 4 h ([4]; Wistar, plasma, 4 h, free unbound, read-out: Plasma concentration at 4 h, free): 0.0363 µM | concentration at 4 h ([4]; Wistar, plasma, 4 h, free, read-out: Plasma concentration at 4 h, free): 0.085 µg/mL | concentration at 4 h ([4]; Wistar, plasma, 4 h, total, read-out: Plasma concentration at 4 h): 0.085 µg/mL | bioavailability ([4]; Wistar, plasma, po, read-out: Oral Bioavailability F): 19% | Human P-gp ER [5]: 1.1 | Mouse P-gp ER [6]: 2.4 | lower exposure compared to example 1 [7]: 5 fold | clearance ([7]; plasma): 0.582 L/h/kg | bioavailability ([7]; plasma, po, read-out: Oral Bioavailability F): 63% | half-life ([7]; plasma, po, read-out: t1/2 p.o. (converted)): 11 h
Compound: C[C@]1(c2nc(NC(=O)c3ccc(C#N)cn3)ccc2F)N=C(N)O[C@H](C(F)(F)F)[C@@H]1F [Comparator 6]
Brain Aβ-lowering 3 mg/kg ([1]; single p.o. dose 3 mg/kg): 86% | Brain Aβ-lowering 10 mg/kg ([1]; single p.o. dose 10 mg/kg): 94% | higher affinity to hERG than example 1 [2]: 6 fold | IC20 ([2]; human, hERG IC20 assay): 0.4 µM | CSF Aβ-lowering 1 mg/kg at 4 h [3]: 77%
